# Columns and labels:
# ob/ob mice = experiment: Blood glucose in ob/ob mice, ip injection; assay type: in vivo; details: ip 20 mg/kg on day 0 and day 4, P<0.001
# Description: Either 6-8 week old male db/db mice or 8-12 week old male ob/ob mice were treated with aqueous solutions of α-PGG by either oral delivery (˜10 μL, A & B) or ip injection (˜50 μL, C, & D). (n=8-10, mean±SD, one-way ANOVA). α-PGG (●); vehicle (∘). α-PGG (20 mg/kg) was orally delivered without glucose to fasting db/db mice (A *, P<0.02; **, P<0.01; ***, P<0.001) or with glucose (0.4 g/kg body weight) to fasting ob/ob mice (B, glucose tolerance test). α-PGG (20 mg/kg) was ip injected into ob/ob mice on day 0 and day 4 (C). A single ip injection (20 mg/kg) of α-PGG was administered to ob/ob mice (D). Glucose (A, B, C) or insulin (D) was determined from sera or plasma isolated from tail vein blood. Animal studies. Genetically diabetic db/db mice or obese ob/ob mice were purchased from Jackson Lab. Male mice of 2-3 months of age were used. Unless otherwise stated, 10 mice (N=10) were used per group. α-PGG was either orally administered or intraperitoneally (ip) injected in the form of an aqueous solution at 20 mg/kg body weight with a 1-cc sterile plastic syringe. At different times after the α-PGG administration, blood or plasma was collected from the tail vein for measurement of glucose and insulin concentrations using commercial kits. Vehicle (aqueous solution) treated mice were used as controls and were statistically compared with the α-PGG treated mice. […]
# [1] = Body weight, food intake and physical activity of treated mice; assay type: in vivo; details: treated mice vs control mice
# Description: Animal studies. Genetically diabetic db/db mice or obese ob/ob mice were purchased from Jackson Lab. Male mice of 2-3 months of age were used. Unless otherwise stated, 10 mice (N=10) were used per group. α-PGG was either orally administered or intraperitoneally (ip) injected in the form of an aqueous solution at 20 mg/kg body weight with a 1-cc sterile plastic syringe. At different times after the α-PGG administration, blood or plasma was collected from the tail vein for measurement of glucose and insulin concentrations using commercial kits. Vehicle (aqueous solution) treated mice were used as controls and were statistically compared with the α-PGG treated mice. All animal studies were conducted in accord with the Ohio University guidelines for the use and care of laboratory animals.
# insulin = insulin (Bos taurus, UniProt P01317); experiment: Binding of α-PGG to insulin
# insulin, sequence (P01317 25-54 limits assumed): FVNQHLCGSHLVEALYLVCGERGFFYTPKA
structure (smiles),measurement,setting,value
"O=C(OC[C@H]1O[C@H](OC(=O)c2cc(O)c(O)c(O)c2)[C@H](OC(=O)c2cc(O)c(O)c(O)c2)[C@@H](OC(=O)c2cc(O)c(O)c(O)c2)[C@@H]1OC(=O)c1cc(O)c(O)c(O)c1)c1cc(O)c(O)c(O)c1 [α-PGG, alpha 1,2,3,4,6-penta-O-galloyl-D-Glucopyranose]",blood glucose levels,ob/ob mice,significantly and consistently lowered
same,body weight,[1],No significant changes
same,food intake,[1],No significant changes
same,physical activity,[1],No significant changes
same,binding to insulin,insulin,did not bind to insulin
